Columns and labels:
[1] = system: mouse model for hind limb peripheral ischemia; assay: Blood flow measurement (non-contact Laser Doppler), mouse hind limb ischemia model; assay type: in vivo, Mouse/Athymic Nude; details: for Rank of treatment group, Blood Flow: Day 35, imputed data, group median, rank 1 best of 10 groups
Text: (§1) Disclosed herein is the testing of BM MSCs in a mouse model for hind limb peripheral ischemia. Peripheral artery disease (PAD) is a form of peripheral vascular diseases (PVD) in which there are partial or total blockage of blood supply to a limb, usually the leg, leading to impaired blood flow and hypoxia in the tissue. When PAD advances it reaches the stage of critical limb ischemia (CLI) with skin ulcerations, gangrene and unavoidable amputations. One of the most promising innovative treatments for diabetic vascular complications is stem cell-based products that enhance angiogenesis (TRefl-3) Hind limb ischemia animal models have been used to evaluate various therapeutic approaches addressing stem cell transplantation.
Animal handling was according to the National Institute of Health (NIH) and the Association for Assessment and Accreditation of Laboratory Animal Care (AAALAC). Animals were housed in polysufone (PSU) cages (7-8/cage) measuring […] cm, with stainless steel top grill having facilities for pelleted food and drinking water in glass-clear polycarbonate bottle; bedding: steam sterilized clean paddy husk (Harlan, Sani-chip, Cat#: 106S8216) was used and bedding material was changed along with the cage at least twice a week. Animals were fed ad libitum a commercial rodent diet (Teklad Certified Global 18% Protein Diet cat #: 106S8216). Animals have free access to autoclaved and acidified drinking water (pH between 2.5 and 3.5) obtained from the municipality supply. Animals were housed under standard laboratory conditions, air conditioned and filtered (HEPA F6/6) with adequate fresh air supply (Minimum 15 air changes/hour). Animals were kept in a climate controlled environment. Temperatures range was 20-24° C. and RH range was 30-70% with 12 hours light and 12 hours dark cycle. Species/Strain: Mouse/Athymic Nude; Gender/Number/Age: Male/152/9-10 weeks; Source: Harlan Laboratories, Israel; Body weight: The average body weight was 28.4 g at study initiation (day 1). The minimum and maximum weights of the group were within a range of ±20% of group mean weight; Acclimation period: 5-10 days; Identification: Three position ear notching and cage cards. […] Surgery Day was defined as “DAY 0” in this study. On the day of surgery anesthesia was induced by 1.5 to 3.0% isofiurane, 1.5% N2O and 0.5% O2. […]
(§2) Body weight was measured on study day −1 prior to the surgery and once weekly thereafter. Blood flow measurement: Blood flow in legs from both sides was measured with a non-contact Laser Doppier before surgery and on days: 1, 3, 7, 14, 21, 28 and 35 post operation. Blood flow measurements were expressed as the ratio of the flow in the ischemic limb to that in the normal limb (Goto et al. Tokai J Exp Clin Med., Vol. 31, No. 3, pp. 128-132, 2006). […]

[2] = system: mouse model for hind limb peripheral ischemia; assay: In vivo assessment of limb function (graded scale), mouse hind limb ischemia model; design: species or system Mouse/Athymic Nude; details: Day 35, imputed data, group median, rank 1 best of 10 groups
Text: Disclosed herein is the testing of BM MSCs in a mouse model for hind limb peripheral ischemia. Peripheral artery disease (PAD) is a form of peripheral vascular diseases (PVD) in which there are partial or total blockage of blood supply to a limb, usually the leg, leading to impaired blood flow and hypoxia in the tissue. When PAD advances it reaches the stage of critical limb ischemia (CLI) with skin ulcerations, gangrene and unavoidable amputations. […]
In vivo assessment of limb function and Ischemic damage. Semi-quantitative assessment of impaired use of the ischemic limb was performed once a week post-surgery using the following scale (Stabile et al., Circulation. 2003; 15; 108{2):205-210). […]
In vivo assessment of limb function. Semi-quantitative assessment of impaired use of the ischemic limb was performed on days 7 up to 35 by using graded functional scales. […]
(§3) In further analyses the imputation of missing data is done in the following way: Blood Flow (%): Value of the first measurement after the surgery (assumption is that treatment failed so that there is no improvement beyond what was observed immediately after surgery); Ischemic Severity Score: 4=“Total Hind-Limb Loss” (the worst score possible); Limb Function 3=“Dragging of foot” (the worst score possible); Weight (g): The animal's lowest weight at any of the points measured up to and including the day of amputation.

[3] = system: mouse model for hind limb peripheral ischemia; assay: Macroscopic evaluation of ischemic severity (morphological grades for necrotic area), mouse hind limb ischemia model; assay type: in vivo, Mouse/Athymic Nude; details: Day 35, imputed data, group median, rank 1 best of 10 groups
Text: as §1
Under anesthesia, the mouse was placed with ventral side up. A 0.5-1.0 cm incision was made in the skin in the inguinal area. The femoral artery was ligated twice with 6-0 silk thread and transected between the ligatures. […]
as §2

[4] = system: mouse model for hind limb peripheral ischemia; assay: Animal disposition (amputations, completion of 35 days follow-up), mouse hind limb ischemia model; assay type: in vivo; details: for Completed % (completed 35 days follow-up) / Imputed % (amputation after day 14, attributed to treatment failure): % of animals of the group; for Completed N (completed 35 days follow-up) / Imputed N (amputation after day 14, attributed to treatment failure): number of animals of the group
Text: A major problem in pre-clinical studies is often the high drop-out rate of animals due to treatment related failure (amputations after day 14 post surgery) or unrelated to treatment (e.g. death during anesthesia, or amputations before day 14 post surgery). Only a few animals had to be excluded from statistical analysis due to the latter reason.
as §1
Under anesthesia, the mouse was placed with ventral side up. A 0.5-1.0 cm incision was made in the skin in the inguinal area. The femoral artery was ligated twice with 6-0 silk thread and transected between the ligatures. The wound was closed with 4-0 silk thread and the mouse was allowed to recover.
On DAY 1, 24 hours post-surgery, each treated animal was injected intramuscular at two sites (the proximal and the distal side of the surgical wound) or intravenous into the tail vein. For intramuscular injection the animals were injected 50 μl at each site, total 100 μl per animal. For intravenous injection the animals were injected by 200 μl per animal.
as §3

[5] = system: mouse model for hind limb peripheral ischemia; assay: Ranking analysis / overall evaluation of all parameters, mouse hind limb ischemia model; assay type: in vivo, Mouse/Athymic Nude; details: for Factor 2: Difference between ranks of adjacent-ranked groups / Factor by which average rank differs from the top-ranked group (4) / Average Rank: Day 35, imputed data; for Average Rank: average over Blood Flow, Limb Function, Ischemic Severity Score
Text: Study end points were: Clinical score; Body weight measurements; Blood flow measurements Ranking analysis: Each group was given a ranking from 1 to 10 on each of the first 3 endpoints measured (% Blood Flow, Limb Function and Ischemic Severity Score). Rank=1 is highest and Rank=10 is lowest. When two groups are tied, both receive the same rank “in the middle”; e.g. if two groups were tied in Rank=4, both received the score 4.5 (twice of which is the sum of ranks 4 and 5). For each endpoint, the median was computed for each group (the median was used to ensure that extreme value will not affect results). On each endpoint, groups were sorted by median and each given its respective rank. The average rank was computed for each group over all endpoints
While paired comparisons were done, central results are presented in a way in that they are statistically relevant and can be clearly depicted in graphics. Data are consistent across endpoints and are consistent across different analysis. To obtain this picture we eliminated Weight from consideration. […] Each group was ranked on remaining 3 endpoints on day 35 and assessed Average Rank of groups—a measure combining results from all endpoints.
Evaluating all Parameters Concurrently at Day 35. Procedure: For each parameter (Blood Flow (%), Limb Function and Ischemic Severity Score) the median in the group across all animals was computed. All the groups based on their median from 1 to 10, where 1 is best, were ranked on each of the following parameters: Blood Flow {%)—highest is 1, lowest is 10; Limb Function—highest is 10, lowest is 1 (worst category is 3, best is 0); Ischemic Severity Score—highest is 10, lowest is 1 (worst category is 4, best is 0); Finally, for each group we computed the average rank over the three parameters.

Cc1ccc2c(c1)C(=O)C1(O)CCN(c3ccccc3)C1=N2 (centres unmarked) [DMEM + BB, blebbistatin]
regeneration of blood flow ([1]; blebbistatin alone, without cells, FIGS. 1A-B): no effect on the regeneration of blood flow
Rank of treatment group, Blood Flow ([1]; im): 6.5
regeneration in blood flow over time ([1]; intramuscular, FIG. 1A): marginally recovery effects
Rank of treatment group, Blood Flow ([1]; iv): 6.5
Rank of treatment group, Limb Function ([2]; im): 5
Rank of treatment group, Limb Function ([2]; iv): 5
Rank of treatment group, Ischemic Severity Score ([3]; im): 6
Rank of treatment group, Ischemic Severity Score ([3]; iv): 6
Completed % (completed 35 days follow-up) ([4]; im): 82.4%
Imputed % (amputation after day 14, attributed to treatment failure) ([4]; im): 0%
Completed N (completed 35 days follow-up) ([4]; im): 14
Imputed N (amputation after day 14, attributed to treatment failure) ([4]; im): 0
Completed % (completed 35 days follow-up) ([4]; iv): 93.3%
Imputed % (amputation after day 14, attributed to treatment failure) ([4]; iv): 0%
Completed N (completed 35 days follow-up) ([4]; iv): 14
Imputed N (amputation after day 14, attributed to treatment failure) ([4]; iv): 0
overall efficacy in the model ([5]; conclusion over endpoints): no beneficial effect
Factor 2: Difference between ranks of adjacent-ranked groups ([5]; im): 0.8
Factor by which average rank differs from the top-ranked group (4) ([5]; im): 4.7
Average Rank ([5]; im): 5.8
Factor 2: Difference between ranks of adjacent-ranked groups ([5]; iv): 0.0
Factor by which average rank differs from the top-ranked group (4) ([5]; iv): 4.7
Average Rank ([5]; iv): 5.8

From patent US20180055888A1, “COMPOSITIONS AND METHODS FOR ENHANCING THE THERAPEUTIC POTENTIAL OF STEM CELLS” (priority 2013, published 2018)
